Assay results reported in patent US20090076136A1, “THERAPEUTIC AGENT” (priority 2003, published 2009).
Where two headings read alike, the source gives them in different places.

Columns and labels:
[1] = tested on: mature adipocytes (3T3-L1 cells); test: Enhancing action on glucose uptake: 2-deoxyglucose uptake into mature adipocytes; type: cell-based
Protocol: The induction of differentiation into mature adipocytes was carried out by partially modifying the method of Rubin C. S. et al. (JBC. 253 7570-7578, 1978). 3T3-L1 cells (ATCC CCL-92.1) were suspended in a 10% calf serum (manufactured by ICN)-containing Dulbecco's modified Eagle's medium (manufactured by Sigma, D6046) containing 200 μM ascorbic acid so as to have a density of 4×10^3 cells/mL, and the suspension was put in each well of a 12-well microtiter plate in an amount of 2 mL per well. The cells were cultured at 37° C. for 7 days in the presence of 5% carbon dioxide gas. On the seventh day, the medium was exchanged with […] of a 10% fetal bovine serum (manufactured by GIBCO)-containing Dulbecco's modified Eagle's medium containing 200 μM ascorbic acid, 0.25 μM dexamethasone, 10 μg/mL insulin (manufactured by TAKARA BIO INC.) and 0.5 mM 3-isobutyl-1-methylxanthine (manufactured by Nacalai Tesque, Inc., 19624-86). After 45 hours, the medium was exchanged with 2 mL of a 10% fetal bovine serum-containing Dulbecco's modified Eagle's medium containing 200 μM ascorbic acid and 5 μg/mL insulin. The medium was exchanged on after 2 days and 5 days, and the cells were cultured for 7 days, to give mature adipocytes.
As the evaluation of enhancing action on glucose uptake, and also as the evaluation of insulin-mimetic action, the amount of 2-deoxyglucose uptake into mature adipocytes stimulated with the sample in the adipocytes was determined.
After the termination of the culture, the medium was removed, and the cells were washed twice with a 0.1% (w/v) bovine serum albumin (manufactured by Sigma, A8022)-containing Dulbecco's modified Eagle's medium. Thereafter, 1 mL of the same medium was put to each well. The cells were cultured overnight at 37° C. in the presence of 5% carbon dioxide gas. After the overnight culture, the cells were washed twice with a HEPES buffered saline (140 mM NaCl, 5 mM KCl, 2.5 mM MgSO4, 1 mM CaCl2, 20 mM HEPES-Na (pH 7.4)), and 0.9 mL of the same buffer was added thereto. The cells were cultured at 37° C. for 75 minutes. […] […] Thereafter, 100 μL of a HEPES buffered saline containing 2-deoxy-[1,2-^3H(N)]-glucose (manufactured by PerkinElmer Life Sciences Inc., NET549A) and 1 mM 2-deoxyglucose (manufactured by Nacalai Tesque, Inc., 10722-11) was added thereto at a final concentration of 0.5 μCi/mL, and the cells were further cultured at 37° C. for 10 minutes. After the termination of the culture, the supernatant was removed, the cells were washed three times with a phosphate buffer cooled to 4° C., and 0.5 mL of a 1% Nonidet P-40-containing phosphate buffer was added to lyse the cells, whereby 2-deoxy-[1,2-^3H(N)]-glucose taken into the cells was eluted. The radioactivity was determined with a liquid scintillation counter LS6500 (manufactured by Beckmann) using 25 μL of the supernatant with Ultima Gold (manufactured by PerkinElmer Life Sciences Inc., 6013329) as a scintillation cocktail.

[2] = tested on: mature adipocytes (3T3-L1 cells); test: Synergistic enhancing action by polygodial and insulin on glucose uptake; type: cell-based; conditions: FIG. 21
Protocol: The amount of 2-deoxyglucose uptake into mature adipocytes stimulated with the sample in the adipocytes was determined partly in accordance with the method described in Example 1 as the evaluation of synergistic enhancing action by a low-concentration polygodial and a low-concentration insulin on glucose uptake.
The mature adipocytes were prepared according to the method described in Example 1.
After the termination of the culture, the medium was removed, and the cells were washed twice with a Dulbecco's modified Eagle's medium containing 0.1% (w/v) bovine serum albumin. Thereafter, the cells were cultured at 37° C. overnight in the presence of 5% carbonic dioxide gas. After the overnight culture, the cells were washed twice with a HEPES buffered saline (140 mM NaCl, 5 mM KCl, 2.5 mM MgSO4, 1 mM CaCl2, 20 mM HEPES-Na (pH 7.4)). The amount 0.9 mL of the same buffer was added thereto. The cells were cultured at 37° C. for 45 minutes. Subsequently, polygodial was added thereto so as to have a final concentration of 300 nM, and insulin was added thereto so as to have a final concentration of 0.05 μg/mL. The cells were further cultured for 30 minutes. […] In addition, a group without addition of the sample was used as a negative control. Thereafter, the amount of 2-deoxy-[1,2-^3H(N)]-glucose taken into the adipocytes was determined in the same manner as in the method described in Example 1.

[3] = tested on: glucose transporter (mature adipocytes); test: Influence of cytochalasin B on 2-deoxyglucose uptake in mature adipocytes; type: cell-based
Protocol: Specifically, as a sample, there was set a group with addition of a dimethyl sulfoxide solution of polygodial so as to have a final concentration of 3 μM. […] Furthermore, in each group, there was set a group with addition of cytochalasin B (manufactured by Nacalai Tesque, Inc., 10435-81) so as to have a final concentration 40 μM at the same time as the time of addition of the sample and insulin. Thereafter, the amount of 2-deoxy-[1,2-^3H(N)]-glucose taken into the adipocytes was determined in the same manner.

[4] = tested on: KK-Ay mice
Protocol: Pathological amelioration of polygodial was examined using a type II diabetes model mice. Experiments were carried out with ten male 5-week old KK-Ay mice (CLEA Japan, Inc.) per group. Polygodial was dissolved in an olive oil so as to have a concentration of 0.03%, and the solution was forcibly orally administered to the mice once a day at 1 mg/kg weight for consecutive days. An olive oil was administered to each of mice in the control group at 3.3 mL/kg weight in the same manner. On the day before the beginning of administration and on the twenty-first day, blood was collected from the vein of mouse tails, and a blood glucose level was determined with a simple blood glucose meter, ACCU-CHEK Compact (manufactured by Roche Diagnostics K.K.). In addition, on the twenty-second day, blood was collected from the abdominal aorta, and the insulin concentration in serum was determined with Lebis Insulin Kit (manufactured by Shibayagi Co., Ltd.).

[5] = tested on: ICR mice; conditions: for Blood Glucose Level, Before Administration of Sample: ICR mice fasted 18 hours, Mean ± Standard Error; for Blood Glucose Level, Before Glucose Tolerance Test: 1 hour after
Protocol: After fasting the mice for 18 hours, polygodial was dissolved in an olive oil so as to have a concentration of 0.3%, and the solution was forcibly orally administered to the mice at 10 mg/kg weight. An olive oil was administered to each of mice in the control group at 3.3 mL/kg weight in the same manner. After 1 hour from the administration, a 20% glucose solution was administered at 2 g/kg weight. Here, the glucose was administered in two ways, forcible oral administration and intraperitoneal administration. Before administration of the sample, before the glucose tolerance test, and after given periods of time after the glucose tolerance test, blood was collected from the vein of mouse tails, and a blood glucose level was determined.

[6] = tested on: mouse; test: Single-dose oral toxicity in mouse; type: in vivo; conditions: 1 g/kg weight
Protocol: No toxicity is found even when the above-mentioned effective ingredient used in the present invention is administered in an effective dose for the exhibition of its action.

[7] = 1 mg/kg weight orally once a day, KK-Ay mice
[8] = polygodial 10 mg/kg orally, glucose 2 g/kg by forcible oral administration
[9] = polygodial 10 mg/kg orally, glucose 2 g/kg by intraperitoneal administration

CC1(C)CCC[C@]2(C)[C@@H](C=O)C(C=O)=CC[C@@H]12 [polygodial]
2-deoxy-[1,2-3H(N)]-glucose uptake compared to the negative control ([1]; final concentration 3 μM, 1 μM, 0.3 μM or 0.1 μM, FIG. 1): enhancement of 2-deoxy-[1,2-^3H(N)]-glucose uptake was found | enhancing action on glucose uptake by simultaneous addition with insulin ([2]; polygodial 300 nM added simultaneously with insulin 0.05 μg/mL, versus either alone): synergistically increase | 2-deoxy-[1,2-3H(N)]-glucose uptake compared to the negative control ([2]; polygodial 300 nM alone): enhancement of 2-deoxy-[1,2-^3H(N)]-glucose uptake was found | 2-deoxy-[1,2-3H(N)]-glucose uptake compared to the negative control [3]: enhancement of 2-deoxy-[1,2-^3H(N)]-glucose uptake was found | mediation of the enhancing action on glucose uptake [3]: mediated by a glucose transporter | action of ameliorating insulin resistance [4, 7]: action of ameliorating insulin resistance was found | blood glucose level (in words) [4, 7]: lowered | insulin concentration (in words) [4, 7]: lowered | Blood Glucose Level, Twenty-First Day ([4]; 1 mg/kg weight orally once a day, twenty-first day, KK-Ay mice, Mean ± Standard Error): 231 ± 36 mg/dL | Insulin (concentration in serum) ([4]; 1 mg/kg weight orally once a day, twenty-second day, KK-Ay mice, Mean ± Standard Error): 8.4 ± 4 ng/mL | Blood Glucose Level, Previous Day ([4]; day before the beginning of administration, KK-Ay mice, Mean ± Standard Error): 328 ± 25 mg/dL | changes in weight and general symptoms ([4]; during the experimental period, 1 mg/kg weight orally once a day): no changes were found | Blood Glucose Level, Before Administration of Sample ([5]; glucose by forcible oral administration): 94 ± 7 mg/dL | Blood Glucose Level, Before Administration of Sample ([5]; glucose by intraperitoneal administration): 77 ± 4 mg/dL | Blood Glucose Level, Before Glucose Tolerance Test ([5]; polygodial 10 mg/kg orally, glucose by forcible oral administration): 126 ± 7 mg/dL | Blood Glucose Level, Before Glucose Tolerance Test ([5]; polygodial 10 mg/kg orally, glucose by intraperitoneal administration): 90 ± 7 mg/dL | Blood Glucose Level, 30 min. After Glucose Tolerance Test [5, 8]: 260 ± 15 mg/dL | Blood Glucose Level, 60 min. After Glucose Tolerance Test [5, 8]: 224 ± 18 mg/dL | Blood Glucose Level, 120 min. After Glucose Tolerance Test [5, 8]: 138 ± 9 mg/dL | Blood Glucose Level, 30 min. After Glucose Tolerance Test [5, 9]: 300 ± 56 mg/dL | Blood Glucose Level, 60 min. After Glucose Tolerance Test [5, 9]: 263 ± 34 mg/dL | Blood Glucose Level, 120 min. After Glucose Tolerance Test [5, 9]: 126 ± 10 mg/dL | Blood Glucose Level, 180 min. After Glucose Tolerance Test [5, 9]: 84 ± 5 mg/dL | action on the elevation in the blood glucose level (in words) ([5]; polygodial 10 mg/kg weight, both oral and intraperitoneal administrations of glucose): suppressive action | deaths after oral administration [6]: no cases of deaths are found

insulin
2-deoxy-[1,2-3H(N)]-glucose uptake compared to the negative control ([1]; positive control, final concentration 1 μg/mL): enhancement of 2-deoxy-[1,2-^3H(N)]-glucose uptake was found | 2-deoxy-[1,2-3H(N)]-glucose uptake compared to the negative control ([2]; insulin 0.05 μg/mL alone): enhancement of 2-deoxy-[1,2-^3H(N)]-glucose uptake was found | 2-deoxy-[1,2-3H(N)]-glucose uptake compared to the negative control ([3]; insulin 1 μg/mL, without cytochalasin B, FIG. 22): enhancement of 2-deoxy-[1,2-^3H(N)]-glucose uptake was found
